Tests used:
[1] = system: isolated rat liver mitochondria; test: Membrane potential of isolated mitochondria (Safranin A); format: biochemical
Description: The membrane potential of rat […] mitochondria was measured with a Victor 3 plate analyzer (Perkin Elmer, Hamburg, Germany) using the potential-dependent indicator Safranin A [57]. The mitochondrial preparation was diluted in a buffer containing mannitol (225 mM) (Dia-M, Moscow, Russia), sucrose (75 mM) (Sigma Aldrich, Saint Louis, MO, USA), HEPES (10 mM) (Gibco, Scotland, UK), EGTA (20 µM) (Dia-M, Moscow, Russia) and KH2PO4 (1 mM) at pH = 7.4 at a ratio of 0.5 mg of protein to 1 mL of medium. Safranin A (5 µM) was added to the suspension immediately before the start of the measurement. The organelles were then energized by potassium succinate (5 mM) in the presence of rotenone (1 µM). Mitochondrial pore opening was induced by the addition of CaCl2 (25 µM).
Figure 8 Effect of the synthesized compounds on the membrane potential of rat liver mitochondria. (a) Kinetic lines of transmembrane potential changes at λex = 458 nm and λem = 590 nm. The concentration of the test substances was 100 µM. (b) Calculated parameters of % depolarization relative to control samples. Statistical significance was assessed using one-way ANOVA and Dunnett’s multiple comparison tests, where **** p < 0.0001 vs. control. (c) Concentration dependence of the effects of 11b and 17b on mitochondrial membrane potential. The concentration of the test substances was from 20 to 200 µM. Concentration of ions; Ca^2+—25 µM. Mitochondria were energized by potassium succinate and rotenone. Data are presented as mean±error of the mean (n = 3).

HuTu 80 cells = test: Intracellular ROS level, CellROX Deep Red flow cytometry; format: cell-based, human; conditions: 48 h incubation, maximum concentration (IC50)
[2] = system: SH-SY5Y cells (neuroblastoma); test: MTT cytotoxicity test, SH-SY5Y; format: cell-based; conditions: Homo sapiens, SH-SY5Y; MTT test; 24 h incubation per text, 48 h per method
Text: (§1) For the experiments, we used tumor cell cultures M-HeLa clone 11 (epithelioid carcinoma of the cervix, subline HeLa., clone M-HeLa), HuTu 80 (human duodenal adenocarcinoma) and MCF7 (human breast adenocarcinoma (pleural fluid)) from the collection of the Institute of Cytology, Russian Academy of Sciences (St. Petersburg); human liver cells (Chang liver) from the collection of the Research Institute of Virology at the Russian Academy of Medical Sciences (Moscow); and SH-SY5Y (neuroblastoma)from the Laboratory of Tumor Cell Genetics at the Scientific Research Institute of Carcinogenesis N.N. Blokhin National Medical Research Center of Oncology.
(§2) The cytotoxic effect on cells was determined using the colorimetric method of cell proliferation—the MTT test. NADP-H-dependent cellular oxidoreductase enzymes can, under certain conditions, reflect the number of viable cells. These enzymes are able to reduce the tetrazolium dye (MTT)-3-(4,5-dimethylthiazol-2-yl)-2,5-diphenyl-tetrazolium bromide to insoluble blue-violet formazan, which crystallizes inside the cell. The amount of formazan formed is proportional to the number of cells with active metabolism.
(§3) Cells were seeded on a 96-well Nunc plate at a concentration of 5 × 10^3 cells per well in a volume of 100 μL of medium and cultured in a CO2 incubator at 37 °C until a monolayer was formed. […] After 48 h, the nutrient medium was removed from the plates and 100 µL of the nutrient medium without serum with MTT at a concentration of 0.5 mg/mL was added and incubated for 4 h at 37 °C. Formazan crystals were […] 100 µL of DMSO in each well. Optical density was recorded at 540 nm on an in vitro logic microplate reader (Russia). The experiments for all compounds were repeated in triplicate.
(§4) IC50 values were estimated using the Quest Graph IC50 Calculator (AAT Bioquest, Inc., Sunnyvale, CA, USA) (Version 2022) (accessed on 25 June 2022).

[3] = system: M-HeLa cells (human cervix epithelioid carcinoma); test: MTT cytotoxicity test, M-HeLa; format: cell-based; conditions: Homo sapiens, M-HeLa; MTT test; 24 h incubation per text, 48 h per method
Text: as §1, §2, §3, §4

[4] = system: Chang liver cells (human liver cells, normal cell line); test: MTT cytotoxicity test, Chang liver normal cells; format: cell-based; conditions: 48 h incubation
Text: as §1, §2, §3, §4

[5] = system: SH-SY5Y neuroblastoma cells; test: Glycolysis stress test (Seahorse XF96e, ECAR); format: cell-based; conditions: compound 100 µM; for Glycolysis: rate of extracellular acidification after saturating glucose: glucose 10 mM; for Glycolytic capacity: oligomycin 1 µM
Description: We studied the ability of compounds to inhibit aerobic glycolysis using the Agilent Seahorse XF96e Analyzer (Seahorse Bioscience, North Billerica, MA, USA) assay of cellular metabolism on the level of proton production in samples examined on the SH-SY5Y neuroblastoma cell line using glycolysis stress tests. The extracellular acidification rate of the medium was measured in real time, which allowed us to assess the intensity of glycolysis in the cells by recording the main parameters of glycolytic function: basal glycolysis, glycolytic capacity and glycolytic reserve. Glycolytic capacity describes the maximum amount of glycolysis/glucose breakdown the cells can perform acutely, whereas glycolytic reserve is defined as the difference between the basal and maximal glycolytic capacity.
The ability of synthesized compounds to modulate […] glycolysis was studied using the Agilent Seahorse XF96e Analyzer (Seahorse Bioscience, Billerica, MA, USA) on the neuroblastoma SH-SY5Y cell line (40,000 cells per well) as described earlier.
Glycolysis was measured by subtracting the maximum rate of extracellular acidification of the medium before glucose injection from the maximum rate before oligomycin injection. Glycolytic capacity was measured by subtracting the maximum velocity value before glucose injection from the maximum velocity value after oligomycin injection. Glycolytic reserve was defined as the difference between glycolytic capacity and glycolysis.
Figure 6 Effect of synthesized compounds on the glycolytic profile of (a–c) SH-SY5Y tumor cells and (d) calculated parameters of glycolytic function. […] The concentration of compounds was 100 µM, glucose—10 mM, oligomycin—1 µM и 2-fluoro-2-deoxy-D-glucose—25 mM. Data are presented as mean±error of the mean (n = 3). Statistical significance was assessed using one-way ANOVA and Dunnett’s multiple comparison tests, where **** p < 0.0001, *** p < 0.001, ** p < 0.01 and * p < 0.05 vs. control.

[6] = system: MCF-7 cells (human breast adenocarcinoma); test: MTT cytotoxicity test, MCF-7; format: cell-based; conditions: 24 h incubation per text, 48 h per method
Description: as §2
Formazan crystals were added to 100 µL of DMSO in each well. Optical density was recorded at 540 nm on an in vitro logic microplate reader (Russia). The experiments for all compounds were repeated in triplicate.

[7] = system: HuTu 80 cells (human duodenal adenocarcinoma); test: MTT cytotoxicity test, HuTu 80; format: cell-based; conditions: Homo sapiens, HuTu80, read-out: IC50, HuTu 80
Text: as §1, §2, §3, §4

Cyclic voltammetry = format: physicochemical; conditions: in CH3CN vs. Ag/AgCl; GC electrode; 0.1 V/s
Text: Electrochemical measurements were taken on a BASi Epsilon EClipse electrochemical analyzer (West Lafayette, IN, USA). The program concentrated cEpsilon-ECUSB-V200 waves at the potential scan rate t = […] in a CH3CN 0.1 M solution of Bu4NBF4 at 295 K. A glassy carbon working electrode (ð = 3 mm) embedded in Teflon and a Pt wire as the counter electrode were used in the electrochemical cell. Before each measurement, the surface of the working electrode was mechanically polished. Ag/AgCl (0.01 M KCl) was used as a reference electrode. The reference electrode was connected with the cell solution by a modified Luggin capillary filled with the supporting electrolyte solution (0.1 M Bu4NBF4 in CH3CN). Thus, the reference electrode assembly had two compartments, each terminated with an ultra-fine glass frit to separate the AgCl from the analyte. The scan rate was 100 mV∙s^−1. The measurements were performed in a temperature-controlled electrochemical cell (volume from 5 mL to 20 mL) in an inert gas atmosphere (N2).
Figure 10 Cyclic voltammogram for the oxidation of SHPs. Conditions: 0.1 mM CH3CN (0.1 M Bu4NBF4); potentials vs. Ag/AgCl; work electrode: GC; scan rate: 0.1 V/s.

Oxidation potential (Cyclic voltammetry) [V] | SMILES | Depolarization of mitochondrial membrane ([1]; isolated mitochondria, compound 100 μM) [%] | Depolarization relative to control (class in Figure 8b) ([1]; isolated rat liver mitochondria, compound 100 µM) | Intracellular ROS level (HuTu 80 cells) [%] | IC50 [2] [µM] | IC50 [3] [µM] | IC50 [4] [µM] | Glycolytic reserve [5] | Glycolysis: rate of extracellular acidification after saturating glucose [5] | Glycolytic capacity [5] | IC50 ([6]; Homo sapiens, MCF7, MTT test) [µM] | IC50 [7] [µM] | melting point [°C] | IC50 ([6]; MTT test) [µM]
 | CCOP(=O)(OCC)C(c1cc(C(C)(C)C)c(O)c(C(C)(C)C)c1)c1ccc(NC(=O)Nc2ccc(Cl)cc2)nc1NC(=O)Nc1ccc(Cl)cc1 (centres unmarked) [11b] | 50 | High Depolarization | 670.7 ± 7.2 | 46.4 ± 0.92 | 70 ± 5.5 | 99.4 ± 7.8 | ability to decrease glycolytic reserves | decrease in the rate of extracellular acidification | decrease in glycolytic capacity | 63.1 ± 4.9 | 25.7 |  | 
1.60 | O=C(Nc1ccccc1)Nc1ccccc1 [diphenyl urea] |  |  |  |  |  |  |  |  |  |  |  |  | 
 | COP(=O)(OC)C(c1cc(C(C)(C)C)c(O)c(C(C)(C)C)c1)c1ccc(NC(=S)Nc2ccccc2)cc1NC(=S)Nc1ccccc1 (centres unmarked) [19a] |  |  |  | > 70 | > 70 |  |  |  |  | > 70 | > 70 | 207 to 208 | 
 | CCOP(=O)(OCC)C(c1cc(C(C)(C)C)c(O)c(C(C)(C)C)c1)c1ccc(NC(=O)Nc2ccc(C)cc2)cc1NC(=O)Nc1ccc(C)cc1 (centres unmarked) [14b] |  |  |  | 27 ± 1.1 | 14.1 ± 1.2 | 21 ± 1.8 |  | decrease in the rate of extracellular acidification | decrease in glycolytic capacity | < 15 | 15.7 ± 1.3 |  | 13.7 ± 1.2
~1.45 | Cc1cc(C(C)(C)C)c(O)c(C(C)(C)C)c1 [ionol] |  |  |  |  |  |  |  |  |  |  |  |  | 

— paper PMC10454409, “Hybrids of Sterically Hindered Phenols and Diaryl Ureas: Synthesis, Switch from Antioxidant Activity to ROS Generation and Induction of Apoptosis” (International Journal of Molecular Sciences, 2023)
